This passage reports IC50 results from ChEMBL document CHEMBL3098008, “Lactam based 7-amino suberoylamide hydroxamic acids as potent HDAC inhibitors” (Bioorg Med Chem Lett, 2014).

Assay [1] is described as follows: Cytotoxicity against human H460 cells. The format is functional, cell-based. Conditions: NCI-H460.
A further assay concerns the target Histone deacetylase 2 (Homo sapiens, UniProt Q92769). Kind of assay: Inhibition of human HDAC2 using RHKK(Ac) as substrate by fluorimetric analysis.
The target in the next assay is T1, Histone deacetylase 11 (Homo sapiens, UniProt Q96DB2).
T1 sequence (Q96DB2 whole entry): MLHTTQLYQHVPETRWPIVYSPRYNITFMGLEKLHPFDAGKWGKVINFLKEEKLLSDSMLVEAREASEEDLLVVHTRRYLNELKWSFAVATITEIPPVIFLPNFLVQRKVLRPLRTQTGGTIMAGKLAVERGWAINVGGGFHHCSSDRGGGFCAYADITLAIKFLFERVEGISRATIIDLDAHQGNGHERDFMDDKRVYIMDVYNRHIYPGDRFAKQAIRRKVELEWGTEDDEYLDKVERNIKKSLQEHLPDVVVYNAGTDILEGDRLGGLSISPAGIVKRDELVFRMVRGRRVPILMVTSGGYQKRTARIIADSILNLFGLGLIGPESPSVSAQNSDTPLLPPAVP
In words: Inhibition of human HDAC11 using RHKK(Ac) as substrate by fluorimetric analysis.

Another assay has as its target Histone deacetylase 1 (Homo sapiens, UniProt Q13547). Kind of assay: Inhibition of human HDAC1 using RHKK(Ac) as substrate by fluorimetric analysis.
For assay [2], the target named is Histone deacetylase 3/Nuclear receptor corepressor 2 (HDAC3/NCoR2) (Homo sapiens, UniProt O15379). Kind of assay: Inhibition of human HDAC3/NCOR2 using RHKK(Ac) as substrate by fluorimetric analysis. The format is protein-complex assay.
Assay [3] has as its target T2, Protein deacetylase HDAC6 (Homo sapiens, UniProt Q9UBN7).
T2 sequence (Q9UBN7 whole entry): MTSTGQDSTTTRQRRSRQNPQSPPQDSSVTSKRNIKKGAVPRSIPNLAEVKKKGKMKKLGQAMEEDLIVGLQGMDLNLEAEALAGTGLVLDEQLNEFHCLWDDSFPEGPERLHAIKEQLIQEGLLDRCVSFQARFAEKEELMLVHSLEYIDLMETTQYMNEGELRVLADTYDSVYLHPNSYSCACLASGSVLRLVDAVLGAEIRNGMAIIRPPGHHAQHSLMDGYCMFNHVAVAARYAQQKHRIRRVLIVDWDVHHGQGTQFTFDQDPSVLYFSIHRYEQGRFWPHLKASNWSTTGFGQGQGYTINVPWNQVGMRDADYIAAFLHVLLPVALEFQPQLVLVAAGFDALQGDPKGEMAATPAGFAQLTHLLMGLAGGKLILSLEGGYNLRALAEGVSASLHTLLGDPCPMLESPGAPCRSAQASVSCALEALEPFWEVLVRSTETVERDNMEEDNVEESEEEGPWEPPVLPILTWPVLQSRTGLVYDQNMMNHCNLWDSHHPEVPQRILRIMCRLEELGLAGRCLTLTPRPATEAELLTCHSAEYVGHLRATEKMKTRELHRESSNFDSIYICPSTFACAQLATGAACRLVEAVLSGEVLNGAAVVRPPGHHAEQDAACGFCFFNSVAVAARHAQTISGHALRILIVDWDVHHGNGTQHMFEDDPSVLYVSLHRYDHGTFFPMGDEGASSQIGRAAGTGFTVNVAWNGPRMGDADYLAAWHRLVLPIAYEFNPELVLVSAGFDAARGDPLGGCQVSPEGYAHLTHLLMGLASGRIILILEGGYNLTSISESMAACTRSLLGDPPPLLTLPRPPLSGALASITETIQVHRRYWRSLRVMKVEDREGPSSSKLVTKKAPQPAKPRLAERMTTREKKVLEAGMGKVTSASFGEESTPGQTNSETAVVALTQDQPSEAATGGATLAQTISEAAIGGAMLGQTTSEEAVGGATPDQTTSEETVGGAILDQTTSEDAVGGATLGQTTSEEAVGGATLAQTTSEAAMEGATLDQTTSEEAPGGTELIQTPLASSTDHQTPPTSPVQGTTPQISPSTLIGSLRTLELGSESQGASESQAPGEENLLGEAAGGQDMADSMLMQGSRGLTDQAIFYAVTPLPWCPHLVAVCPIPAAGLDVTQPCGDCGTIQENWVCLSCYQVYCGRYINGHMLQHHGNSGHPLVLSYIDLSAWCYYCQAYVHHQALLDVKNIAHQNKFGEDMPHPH
In words: Inhibition of human HDAC6 using RHKK(Ac) as substrate by fluorimetric analysis.

Assay [4] addresses T3, Polyamine deacetylase HDAC10 (Homo sapiens, UniProt Q969S8).
T3 sequence (Q969S8 whole entry): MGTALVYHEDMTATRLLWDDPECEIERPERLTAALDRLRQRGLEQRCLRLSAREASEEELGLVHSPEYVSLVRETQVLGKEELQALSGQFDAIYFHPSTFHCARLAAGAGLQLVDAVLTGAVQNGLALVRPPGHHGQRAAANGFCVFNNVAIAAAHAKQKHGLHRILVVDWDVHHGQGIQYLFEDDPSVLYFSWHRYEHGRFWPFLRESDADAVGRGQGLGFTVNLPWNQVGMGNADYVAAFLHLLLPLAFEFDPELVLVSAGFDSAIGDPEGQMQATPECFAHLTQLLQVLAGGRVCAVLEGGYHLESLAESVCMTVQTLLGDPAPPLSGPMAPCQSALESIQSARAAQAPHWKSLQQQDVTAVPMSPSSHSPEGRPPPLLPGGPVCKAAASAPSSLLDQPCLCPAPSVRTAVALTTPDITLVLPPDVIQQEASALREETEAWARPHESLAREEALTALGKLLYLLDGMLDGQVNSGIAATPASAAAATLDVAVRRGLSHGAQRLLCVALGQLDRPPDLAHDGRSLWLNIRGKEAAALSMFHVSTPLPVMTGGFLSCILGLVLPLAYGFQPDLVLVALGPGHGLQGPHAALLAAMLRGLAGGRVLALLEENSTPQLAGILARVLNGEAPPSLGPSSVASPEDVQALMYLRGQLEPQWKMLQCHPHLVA
In words: Inhibition of human HDAC10 using RHKK(Ac) as substrate by fluorimetric analysis.

Chain of Histone deacetylase 3/Nuclear receptor corepressor 2 (HDAC3/NCoR2) (O15379 whole entry): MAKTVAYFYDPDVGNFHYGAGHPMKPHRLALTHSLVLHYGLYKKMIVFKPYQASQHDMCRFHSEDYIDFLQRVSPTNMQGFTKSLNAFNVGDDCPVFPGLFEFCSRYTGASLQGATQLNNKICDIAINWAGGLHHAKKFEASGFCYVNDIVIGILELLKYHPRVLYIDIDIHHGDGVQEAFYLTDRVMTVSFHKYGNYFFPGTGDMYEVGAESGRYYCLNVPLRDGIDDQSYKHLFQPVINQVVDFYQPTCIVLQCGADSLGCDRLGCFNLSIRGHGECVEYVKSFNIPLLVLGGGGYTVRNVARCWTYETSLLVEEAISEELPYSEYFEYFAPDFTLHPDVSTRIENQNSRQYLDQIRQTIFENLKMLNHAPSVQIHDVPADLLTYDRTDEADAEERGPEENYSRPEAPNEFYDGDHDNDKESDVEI
Chain of Histone deacetylase 3/Nuclear receptor corepressor 2 (HDAC3/NCoR2) (Q9Y618 whole entry, further chain): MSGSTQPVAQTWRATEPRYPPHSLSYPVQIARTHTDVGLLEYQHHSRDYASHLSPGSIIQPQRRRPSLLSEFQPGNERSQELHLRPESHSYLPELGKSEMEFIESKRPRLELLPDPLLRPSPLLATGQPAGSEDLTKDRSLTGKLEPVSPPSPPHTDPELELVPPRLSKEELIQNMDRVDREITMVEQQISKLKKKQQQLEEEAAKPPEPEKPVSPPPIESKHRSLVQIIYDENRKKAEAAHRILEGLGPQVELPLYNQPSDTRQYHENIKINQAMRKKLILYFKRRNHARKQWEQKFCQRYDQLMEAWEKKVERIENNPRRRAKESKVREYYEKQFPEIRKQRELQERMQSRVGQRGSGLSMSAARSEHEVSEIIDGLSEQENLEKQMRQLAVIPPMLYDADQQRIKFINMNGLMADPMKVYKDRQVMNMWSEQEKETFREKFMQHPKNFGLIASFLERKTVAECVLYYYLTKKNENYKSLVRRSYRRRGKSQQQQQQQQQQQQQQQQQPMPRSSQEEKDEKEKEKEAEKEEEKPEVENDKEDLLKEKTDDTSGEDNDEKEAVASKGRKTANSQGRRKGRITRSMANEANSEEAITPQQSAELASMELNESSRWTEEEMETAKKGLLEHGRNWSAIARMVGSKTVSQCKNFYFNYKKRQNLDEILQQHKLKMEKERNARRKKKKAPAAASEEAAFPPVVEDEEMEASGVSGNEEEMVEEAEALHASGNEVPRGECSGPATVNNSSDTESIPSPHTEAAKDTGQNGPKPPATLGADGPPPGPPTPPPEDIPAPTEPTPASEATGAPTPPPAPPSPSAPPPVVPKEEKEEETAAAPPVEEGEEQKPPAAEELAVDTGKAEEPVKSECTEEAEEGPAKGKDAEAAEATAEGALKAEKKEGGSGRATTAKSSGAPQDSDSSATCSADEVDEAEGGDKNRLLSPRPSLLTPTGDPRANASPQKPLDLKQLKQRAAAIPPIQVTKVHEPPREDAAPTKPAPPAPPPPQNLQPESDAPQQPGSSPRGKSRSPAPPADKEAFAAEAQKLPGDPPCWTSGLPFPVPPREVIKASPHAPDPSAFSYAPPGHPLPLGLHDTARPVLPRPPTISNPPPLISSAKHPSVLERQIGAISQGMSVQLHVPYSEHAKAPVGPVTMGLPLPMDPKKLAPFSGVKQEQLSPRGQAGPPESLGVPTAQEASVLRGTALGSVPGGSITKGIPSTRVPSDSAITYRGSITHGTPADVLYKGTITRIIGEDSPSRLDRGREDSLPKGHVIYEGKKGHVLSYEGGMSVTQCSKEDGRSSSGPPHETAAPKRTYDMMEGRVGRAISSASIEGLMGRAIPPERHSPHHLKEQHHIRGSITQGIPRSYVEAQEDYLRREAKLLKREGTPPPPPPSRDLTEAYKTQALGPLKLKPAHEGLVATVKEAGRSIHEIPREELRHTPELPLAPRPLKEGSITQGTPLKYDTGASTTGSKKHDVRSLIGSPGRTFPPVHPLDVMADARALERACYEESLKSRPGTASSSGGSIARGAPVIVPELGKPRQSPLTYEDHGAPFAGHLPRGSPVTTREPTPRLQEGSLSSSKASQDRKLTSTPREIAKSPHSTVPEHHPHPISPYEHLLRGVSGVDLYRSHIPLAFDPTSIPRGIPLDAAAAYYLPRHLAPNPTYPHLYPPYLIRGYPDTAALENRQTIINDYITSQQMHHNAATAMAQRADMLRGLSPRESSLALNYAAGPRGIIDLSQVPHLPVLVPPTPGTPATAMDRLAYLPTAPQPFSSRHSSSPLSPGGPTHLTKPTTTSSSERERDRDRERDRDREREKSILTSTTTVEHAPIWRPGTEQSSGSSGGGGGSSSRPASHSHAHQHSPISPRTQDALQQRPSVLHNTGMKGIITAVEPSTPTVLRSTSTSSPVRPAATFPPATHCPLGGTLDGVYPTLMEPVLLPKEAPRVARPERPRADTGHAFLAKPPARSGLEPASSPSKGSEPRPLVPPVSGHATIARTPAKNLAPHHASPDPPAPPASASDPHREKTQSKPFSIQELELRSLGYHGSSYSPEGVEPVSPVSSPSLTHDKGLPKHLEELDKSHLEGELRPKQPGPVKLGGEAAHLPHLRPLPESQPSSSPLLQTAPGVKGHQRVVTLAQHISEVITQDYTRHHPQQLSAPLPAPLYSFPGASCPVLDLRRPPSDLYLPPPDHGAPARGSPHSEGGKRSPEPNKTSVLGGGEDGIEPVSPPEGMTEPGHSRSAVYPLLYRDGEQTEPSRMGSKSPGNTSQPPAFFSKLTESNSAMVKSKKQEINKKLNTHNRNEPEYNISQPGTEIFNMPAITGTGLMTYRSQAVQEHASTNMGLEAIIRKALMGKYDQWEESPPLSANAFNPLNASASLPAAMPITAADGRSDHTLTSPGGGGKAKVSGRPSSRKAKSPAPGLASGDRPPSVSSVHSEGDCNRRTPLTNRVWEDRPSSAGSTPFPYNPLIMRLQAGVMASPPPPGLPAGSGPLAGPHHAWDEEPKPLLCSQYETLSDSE
Chain of Histone deacetylase 2 (Q92769 whole entry): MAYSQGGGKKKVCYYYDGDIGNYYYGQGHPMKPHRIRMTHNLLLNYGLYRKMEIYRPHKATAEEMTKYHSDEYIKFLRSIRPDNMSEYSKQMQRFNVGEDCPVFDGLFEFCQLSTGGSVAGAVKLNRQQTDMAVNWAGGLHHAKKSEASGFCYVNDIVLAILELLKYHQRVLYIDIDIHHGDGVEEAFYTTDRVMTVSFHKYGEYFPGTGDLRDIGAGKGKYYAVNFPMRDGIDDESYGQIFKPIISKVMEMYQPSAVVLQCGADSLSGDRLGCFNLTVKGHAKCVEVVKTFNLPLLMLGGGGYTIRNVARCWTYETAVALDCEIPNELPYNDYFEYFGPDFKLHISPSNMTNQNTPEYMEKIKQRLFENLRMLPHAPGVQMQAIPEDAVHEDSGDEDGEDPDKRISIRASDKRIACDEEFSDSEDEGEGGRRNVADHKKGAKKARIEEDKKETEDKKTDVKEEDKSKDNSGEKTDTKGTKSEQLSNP
Chain of Histone deacetylase 1 (Q13547 whole entry): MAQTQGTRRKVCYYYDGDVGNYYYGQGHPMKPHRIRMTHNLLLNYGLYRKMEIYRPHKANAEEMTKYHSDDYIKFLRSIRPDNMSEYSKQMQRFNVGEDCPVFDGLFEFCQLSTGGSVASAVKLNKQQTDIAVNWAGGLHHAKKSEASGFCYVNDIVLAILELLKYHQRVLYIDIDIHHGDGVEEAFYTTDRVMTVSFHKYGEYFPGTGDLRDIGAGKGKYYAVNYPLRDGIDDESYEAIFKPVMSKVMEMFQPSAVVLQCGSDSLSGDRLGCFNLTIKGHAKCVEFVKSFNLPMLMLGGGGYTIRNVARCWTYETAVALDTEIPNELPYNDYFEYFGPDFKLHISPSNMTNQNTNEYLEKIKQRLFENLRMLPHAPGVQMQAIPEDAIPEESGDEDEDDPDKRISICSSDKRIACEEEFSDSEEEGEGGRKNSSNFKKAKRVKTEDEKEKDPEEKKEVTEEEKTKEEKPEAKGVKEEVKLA

Regarding `O=C(CCCCCCC(=O)NC1CCCC1)NO`, the IC50 amounted to 21000 nM in assay [1]; 4390 nM against Histone deacetylase 2; 2630 nM against Histone deacetylase 11; 1790 nM at Histone deacetylase 1; 3330 nM in assay [2]; 75 nM in assay [3]. The molecule also displayed a concentration for half-maximal inhibition (IC50) in assay [4] of 4890 nM.
Take `O=C(CCCCC[C@H](NC(=O)[C@H]1CCC(=O)N1)C(=O)NCCc1ccccc1)NO`: the IC50 in assay [1] stood at 4900 nM; at Histone deacetylase 2, 180 nM; at Histone deacetylase 11, 47.8 nM; against Histone deacetylase 1, 77 nM; in assay [2], 144 nM; in assay [3], 6 nM. Besides, the midpoint of inhibition in assay [4], the IC50, lay at 210 nM.
As to `O=C(CCCCC[C@H](NC(=O)C1CCCNC1=O)C(=O)Nc1ccccc1)NO` (stereo not given in full), the IC50 in assay [1] is 5100 nM; at Histone deacetylase 2 it was 689 nM; at Histone deacetylase 11 it was 255 nM; against Histone deacetylase 1, 131 nM; in assay [2], 116 nM; in assay [3], 19 nM. Moreover, in assay [4], inhibition was half-maximal at 244 nM (IC50).
With `O=C(CCCCC[C@H](NC(=O)C1C(=O)NCC1c1ccccc1)C(=O)Nc1ccccc1)NO` (stereo not given in full), the concentration for half-maximal inhibition (IC50) was determined as 2400 nM in assay [1]; 110 nM at Histone deacetylase 2; 70 nM against Histone deacetylase 11; 33 nM at Histone deacetylase 1; 14 nM in assay [2]; 4 nM in assay [3]. 88 nM corresponded to half-maximal inhibition in assay [4] (IC50).
For the molecule `O=C(CCCCC[C@H](NC(=O)C1CCNC1=O)C(=O)Nc1ccccc1)NO` (stereo not given in full), the IC50 in assay [1] is 4000 nM; on Histone deacetylase 2 it was 238 nM; on Histone deacetylase 11, 150 nM; at Histone deacetylase 1, 72 nM; in assay [2], 74 nM; in assay [3] it was 4 nM. Moreover, in assay [4], the IC50 came out at 147 nM.
On to `Cc1ccc(NC(=O)CCCCCCC(=O)NO)cc1`, for which the IC50 in assay [1] is 4100 nM; on Histone deacetylase 2, 589 nM; on Histone deacetylase 11, 78.6 nM; against Histone deacetylase 1, 200 nM; in assay [2] it was 452 nM; in assay [3], 12 nM. The IC50 in assay [4] amounted to 649 nM.
`O=C(CCCCCCC(=O)NCCc1ccccc1)NO`: the IC50 in assay [1] was 18200 nM; at Histone deacetylase 2 it was 5160 nM; at Histone deacetylase 11, 1130 nM; against Histone deacetylase 1, 1140 nM; in assay [2], 3610 nM; in assay [3], 25 nM. The half-maximal inhibitory concentration (IC50) in assay [4] came out at 1350 nM.
In the case of `O=C(CCCCC[C@H](NC(=O)[C@@H]1CCCC(=O)N1)C(=O)Nc1ccccc1)NO`, the IC50 in assay [1] is 2500 nM; against Histone deacetylase 2 it was 89 nM; at Histone deacetylase 11 it was 47 nM; on Histone deacetylase 1 it was 25 nM; in assay [2], 20 nM; in assay [3] it was 5 nM. The same molecule had an IC50 in assay [4] of 51 nM.
In the case of `Cc1ccc(NC(=O)[C@H](CCCCCC(=O)NO)NC(=O)[C@H]2CCC(=O)N2)cc1`, the IC50 came out at 600 nM in assay [1]; 93 nM on Histone deacetylase 2; 127 nM against Histone deacetylase 11; 32 nM at Histone deacetylase 1; 66 nM in assay [2]; 4 nM in assay [3]. Moreover, the IC50 in assay [4] turned out to be 163 nM.
As to `O=C(CCCCC[C@H](NC(=O)[C@@H]1CC(=O)N1)C(=O)Nc1ccccc1)NO`, the IC50 amounted to 2200 nM in assay [1]; 89 nM at Histone deacetylase 2; 135 nM at Histone deacetylase 11; 34 nM against Histone deacetylase 1; 62 nM in assay [2]; 3 nM in assay [3]. This molecule also showed an IC50 in assay [4] of 113 nM.
For `O=C(CCCCC[C@H](NC(=O)[C@@H]1CCCC(=O)N1)C(=O)NCCc1ccccc1)NO`, the concentration for half-maximal inhibition (IC50) in assay [1] was 8200 nM; against Histone deacetylase 2, 956 nM; at Histone deacetylase 11 it was 262 nM; against Histone deacetylase 1, 102 nM; in assay [2], 539 nM; in assay [3], 8 nM. The molecule also came in with a 50% inhibitory concentration (IC50) in assay [4] of 227 nM.
Take `O=C(CCCCC[C@H](NC(=O)[C@H]1CCC(=O)N1)C(=O)Nc1cccc(C(F)(F)F)c1)NO`: the IC50 in assay [1] is 500 nM; against Histone deacetylase 2, 8 nM; at Histone deacetylase 11, 55.5 nM; against Histone deacetylase 1 it was 2 nM; in assay [2] it was 2 nM; in assay [3], 2 nM. Moreover, the IC50 in assay [4] is 10.6 nM.
Turning to `O=C(CCCCC[C@H](NC(=O)[C@@H]1CCCC(=O)N1)C(=O)NC1CCCC1)NO`, the IC50 in assay [1] was 2400 nM; against Histone deacetylase 2, 5040 nM; against Histone deacetylase 11, 1440 nM; on Histone deacetylase 1, 1450 nM; in assay [2], 5660 nM; in assay [3], 31 nM. The half-maximal inhibitory concentration (IC50) in assay [4] amounted to 6830 nM.
`O=C(CCCCC[C@H](NC(=O)[C@@H]1CCC(=O)N1)C(=O)Nc1ccccc1)NO`: the IC50 in assay [1] was 5400 nM; at Histone deacetylase 2 it was 143 nM; against Histone deacetylase 11 it was 37 nM; against Histone deacetylase 1, 59 nM; in assay [2] it was 89 nM; in assay [3], 6 nM. In assay [4], this molecule registered a concentration for half-maximal inhibition (IC50) of 125 nM.
With `O=C(CCCCC[C@H](NC(=O)[C@H]1CCC(=O)N1)C(=O)Nc1ccccc1)NO`, the IC50 in assay [1] came to 4000 nM; on Histone deacetylase 2 it was 142 nM; at Histone deacetylase 11 it was 75 nM; against Histone deacetylase 1, 43 nM; in assay [2] it was 67 nM; in assay [3], 8 nM. This molecule also gave an IC50 in assay [4] of 93 nM.
Consider `Cc1cccc(NC(=O)[C@H](CCCCCC(=O)NO)NC(=O)[C@H]2CCC(=O)N2)c1`, for which the IC50 was 500 nM in assay [1]; 27 nM against Histone deacetylase 2; 15.5 nM against Histone deacetylase 11; 7 nM against Histone deacetylase 1; 11 nM in assay [2]; 3 nM in assay [3]. This molecule also came in with an IC50 in assay [4] of 30.3 nM.
Turning to `Cc1cccc(NC(=O)CCCCCCC(=O)NO)c1`, the IC50 in assay [1] was 800 nM; against Histone deacetylase 11, 1600 nM; against Histone deacetylase 1, 197 nM; in assay [2] it was 216 nM; in assay [3] it was 22 nM; in assay [4], 503 nM.
Consider `O=C(CCCCCCC(=O)Nc1cccc(C(F)(F)F)c1)NO`, for which the IC50 was found to be 2500 nM in assay [1]; 165 nM on Histone deacetylase 2; 75.1 nM against Histone deacetylase 11; 63 nM against Histone deacetylase 1; 185 nM in assay [2]; 6 nM in assay [3]. This molecule had an IC50 in assay [4] of 374 nM.
